Each molecule was assayed on ZIKV (assay: ZIKV reporter virus-based antiviral screening on Huh7 cells). Conditions: Huh7 cells infected with recombinant luciferase reporter ZIKV (MOI about 0.1), 48 hrs, luciferase signal; read-out: EC50.
Assay type: cell-based, Zika virus
Summary of the method: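 Huh7 cells in 2% FBS assay medium infected at MOI about 0.1 with Renilla or Nano luciferase ZIKV premixed with nine-point compound dilutions, 48 hrs at 37° C. Luciferase signal normalized to DMSO controls as 100%; viability optionally by CellTiter-Glo with Rlu virus.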

Molecule	EC50 [nM]
methyl ((S)-1-((S)-2-(5-(7-(4-chloro-2-((S)-1-((methoxycarbonyl)-L-valyl)pyrrolidin-2-yl)-1H-imidazol-5-yl)-5,10-dihydrochromeno[5,4,3-cde]chromen-2-yl)-4-isopropyl-1H-imidazol-2-yl)pyrrolidin-1-yl)-3-methyl-1-oxobutan-2-yl)carbamate [Compound 77]	13.6

Same assay, conditions: Zika virus, Huh-7, 48 h, Huh7 cells infected with recombinant luciferase reporter ZIKV (MOI about 0.1), luciferase signal

Molecule	EC50 [nM]
COC(=O)N[C@H](C(=O)N1[C@@H](C)CC[C@H]1c1nc(Cl)c(-c2cc3c4c(c2)OCc2cc(-c5[nH]c([C@@H]6CC[C@H](C)N6C(=O)[C@@H](NC(=O)OC)C(C)(C)C)nc5Cl)cc(c2-4)OC3)[nH]1)C(C)(C)C [Compound 31, dimethyl ((2S,2′S)-((2S,2′S,5S,5′S)-((5,10-dihydrochromeno[5,4,3-cde]chromene-2,7-diyl)bis(4-chloro-1H-imidazole-5,2-diyl))bis(2-methylpyrrolidine-5,1-diyl))bis(3,3-dimethyl-1-oxobutane-1,2-diyl))dicarbamate]	1.1
CC[C@H](C)[C@H](NC(=O)OC)C(=O)N1C[C@@H](C)C[C@H]1c1ncc(-c2cc3c4c(c2)OCc2cc(-c5[nH]c([C@@H]6C[C@H](C)CN6C(=O)[C@@H](NC(=O)OC)[C@@H](C)CC)nc5Cl)cc(c2-4)OC3)[nH]1 [Compound 67, methyl ((2S,3S)-1-((2S,4S)-2-(4-chloro-5-(7-(2-((2S,4S)-1-((methoxycarbonyl)-L-isoleucyl)-4-methylpyrrolidin-2-yl)-1H-imidazol-5-yl)-5,10-dihydrochromeno[5,4,3-cde]chromen-2-yl)-1H-imidazol-2-yl)-4-methylpyrrolidin-1-yl)-3-methyl-1-oxopentan-2-yl)carbamate]	23.9
COC(=O)N[C@H](C(=O)N1CC2(CC2)C[C@H]1c1nc(Cl)c(-c2cc3c4c(c2)OCc2cc(-c5[nH]c([C@@H]6CC7(CC7)CN6C(=O)[C@@H](NC(=O)OC)C(C)(C)C(F)(F)F)nc5C(C)C)cc(c2-4)OC3)[nH]1)C(C)(C)C(F)(F)F [Compound 85, methyl ((S)-1-((S)-6-(5-(7-(4-chloro-2-((S)-5-((S)-4,4,4-trifluoro-2-((methoxycarbonyl)amino)-3,3-dimethylbutanoyl)-5-azaspiro[2.4]heptan-6-yl)-1H-imidazol-5-yl)-5,10-dihydrochromeno[5,4,3-cde]chromen-2-yl)-4-isopropyl-1H-imidazol-2-yl)-5-azaspiro[2.4]heptan-5-yl)-4,4,4-trifluoro-3,3-dimethyl-1-oxobutan-2-yl)carbamate]	1.4
COC(=O)N[C@H](C(=O)N1C[C@H](F)C[C@H]1c1nc(Cl)c(-c2cc3c4c(c2)OCc2cc(-c5[nH]c([C@@H]6C[C@@H](F)CN6C(=O)[C@@H](NC(=O)OC)C(C)(C)C(F)(F)F)nc5Cl)cc(c2-4)OC3)[nH]1)C(C)(C)C(F)(F)F [Compound 55, dimethyl ((2S,2′S)-((3R,3′R,5S,5′S)-((5,10-dihydrochromeno[5,4,3-cde]chromene-2,7-diyl)bis(4-chloro-1H-imidazole-5,2-diyl))bis(3-fluoropyrrolidine-5,1-diyl))bis(4,4,4-trifluoro-3,3-dimethyl-1-oxobutane-1,2-diyl))dicarbamate]	4.7
CC[C@H](C)[C@H](NC(=O)OC)C(=O)N1C[C@@H](C)C[C@H]1c1nc(Cl)c(-c2cc3c4c(c2)OCc2cc(-c5[nH]c([C@@H]6C[C@H](C)CN6C(=O)[C@@H](NC(=O)OC)[C@@H](C)CC)nc5Cl)cc(c2-4)OC3)[nH]1 [Compound 68, dimethyl ((2S,2′S,3S,3′S)-((3S,3′S,5S,5′S)-((5,10-dihydrochromeno[5,4,3-cde]chromene-2,7-diyl)bis(4-chloro-1H-imidazole-5,2-diyl))bis(3-methylpyrrolidine-5,1-diyl))bis(3-methyl-1-oxopentane-1,2-diyl))dicarbamate]	9.9
CC[C@H](C)[C@H](NC(=O)OC)C(=O)N1CCC[C@@]1(C)c1nc(Cl)c(-c2cc3c4c(c2)OCc2cc(-c5[nH]c([C@]6(C)CCCN6C(=O)[C@@H](NC(=O)OC)[C@@H](C)CC)nc5Cl)cc(c2-4)OC3)[nH]1 [Compound 66, dimethyl ((2S,2′S,3S,3′S)-((2S,2′S)-((5,10-dihydrochromeno[5,4,3-cde]chromene-2,7-diyl)bis(4-chloro-1H-imidazole-5,2-diyl))bis(2-methylpyrrolidine-2,1-diyl))bis(3-methyl-1-oxopentane-1,2-diyl))dicarbamate]	44
COC(=O)N[C@H](C(=O)N1[C@H](c2nc(Cl)c(-c3cc4c5c(c3)OCc3cc(-c6[nH]c([C@@H]7C[C@@H]8CCCC[C@@H]8N7C(=O)[C@@H](NC(=O)OC)C(C)C)nc6Cl)cc(c3-5)OC4)[nH]2)C[C@@H]2CCCC[C@@H]21)C(C)C [Compound 37, dimethyl ((2S,2′S)-((2S,2′S,3aS,3a′S,7aS,7a′S)-((5,10-dihydrochromeno[5,4,3-cde]chromene-2,7-diyl)bis(4-chloro-1H-imidazole-5,2-diyl))bis(octahydro-1H-indole-2,1-diyl))bis(3-methyl-1-oxobutane-1,2-diyl))dicarbamate]	5.7
COC(=O)N[C@H](C(=O)N1[C@H](c2nc(Cl)c(-c3cc4c5c(c3)OCc3cc(-c6[nH]c([C@@H]7C[C@@H]8C[C@@H]8N7C(=O)[C@@H](NC(=O)OC)C(C)(C)C(F)(F)F)nc6Cl)cc(c3-5)OC4)[nH]2)C[C@@H]2C[C@@H]21)C(C)(C)C(F)(F)F [Compound 12, dimethyl ((2S,2′S)-((1S,1′S,3S,3′S,5S,5′S)-((5,10-dihydrochromeno[5,4,3-cde]chromene-2,7-diyl)bis(4-chloro-1H-imidazole-5,2-diyl))bis(2-azabicyclo[3.1.0]hexane-3,2-diyl))bis(4,4,4-trifluoro-3,3-dimethyl-1-oxobutane-1,2-diyl))dicarbamate]	11.9
CC[C@H](C)[C@H](NC(=O)OC)C(=O)N1[C@@H](C)CC[C@H]1c1nc(C(C)C)c(-c2cc3c4c(c2)OCc2cc(-c5[nH]c([C@@H]6CC[C@H](C)N6C(=O)[C@@H](NC(=O)OC)[C@@H](C)CC)nc5C(C)C)cc(c2-4)OC3)[nH]1 [Compound 41, dimethyl ((2S,2′S,3S,3′S)-((2S,2′S,5S,5′S)-((5,10-dihydrochromeno[5,4,3-cde]chromene-2,7-diyl)bis(4-isopropyl-1H-imidazole-5,2-diyl))bis(2-methylpyrrolidine-5,1-diyl))bis(3-methyl-1-oxopentane-1,2-diyl))dicarbamate]	2.8
COC(=O)N[C@H](C(=O)N1CCC[C@@]1(C)c1nc(Cl)c(-c2cc3c4c(c2)OCc2cc(-c5[nH]c([C@]6(C)CCCN6C(=O)[C@@H](NC(=O)OC)C(C)C)nc5Cl)cc(c2-4)OC3)[nH]1)C(C)C [Compound 64, dimethyl ((2S,2′S)-((2S,2′S)-((5,10-dihydrochromeno[5,4,3-cde]chromene-2,7-diyl)bis(4-chloro-1H-imidazole-5,2-diyl))bis(2-methylpyrrolidine-2,1-diyl))bis(3-methyl-1-oxobutane-1,2-diyl))dicarbamate]	234
COC(=O)N[C@H](C(=O)N1CCC[C@H]1c1nc(Cl)c(-c2cc3c4c(c2)OCc2cc(-c5[nH]c([C@@H]6CCCN6C(=O)[C@@H](NC(=O)OC)C(C)(C)C(F)(F)F)nc5Cl)cc(c2-4)OC3)[nH]1)C(C)(C)C(F)(F)F [Compound 27, dimethyl ((2S,2′S)-((2S,2′S)-((5,10-dihydrochromeno[5,4,3-cde]chromene-2,7-diyl)bis(4-chloro-1H-imidazole-5,2-diyl))bis(pyrrolidine-2,1-diyl))bis(4,4,4-trifluoro-3,3-dimethyl-1-oxobutane-1,2-diyl))dicarbamate]	2.6
CC[C@H](C)[C@H](NC(=O)OC)C(=O)N1C[C@H](C)C[C@H]1c1nc(Cl)c(-c2cc3c4c(c2)OCc2cc(-c5[nH]c([C@@H]6C[C@@H](C)CN6C(=O)[C@@H](NC(=O)OC)[C@@H](C)CC)nc5Cl)cc(c2-4)OC3)[nH]1 [Compound 2, dimethyl ((2S,2′S,3S,3′S)-((3R,3′R,5S,5′S)-((5,10-dihydrochromeno[5,4,3-cde]chromene-2,7-diyl)bis(4-chloro-1H-imidazole-5,2-diyl))bis(3-methylpyrrolidine-5,1-diyl))bis(3-methyl-1-oxopentane-1,2-diyl))dicarbamate]	6.5
COC(=O)N[C@H](C(=O)N1CCCC[C@H]1c1nc(Cl)c(-c2cc3c4c(c2)OCc2cc(-c5[nH]c([C@@H]6CCCCN6C(=O)[C@@H](NC(=O)OC)C(C)C)nc5Cl)cc(c2-4)OC3)[nH]1)C(C)C [Compound 13, dimethyl ((2S,2′S)-((2S,2′S)-((5,10-dihydrochromeno[5,4,3-cde]chromene-2,7-diyl)bis(4-chloro-1H-imidazole-5,2-diyl))bis(piperidine-2,1-diyl))bis(3-methyl-1-oxobutane-1,2-diyl))dicarbamate]	4.5
COC(=O)N[C@H](C(=O)N1[C@H](c2ncc(-c3cc4c5c(c3)OCc3cc(-c6[nH]c([C@@H]7C[C@@H]8CCC[C@@H]8N7C(=O)[C@@H](NC(=O)OC)C(C)C)nc6Cl)cc(c3-5)OC4)[nH]2)C[C@@H]2CCC[C@@H]21)C(C)C [Compound 30, methyl ((S)-1-((2S,3aS,6aS)-2-(4-chloro-5-(7-(2-((2S,3aS,6aS)-1-((methoxycarbonyl)-L-valyl)octahydrocyclopenta[b]pyrrol-2-yl)-1H-imidazol-5-yl)-5,10-dihydrochromeno[5,4,3-cde]chromen-2-yl)-1H-imidazol-2-yl)hexahydrocyclopenta[b]pyrrol-1(2H)-yl)-3-methyl-1-oxobutan-2-yl)carbamate]	8
CC[C@@H](C)[C@H](NC(=O)OC)C(=O)N1CCC[C@H]1c1nc(Cl)c(-c2cc3c4c(c2)OCc2cc(-c5[nH]c([C@@H]6CCCN6C(=O)[C@@H](NC(=O)OC)[C@H](C)CC)nc5Cl)cc(c2-4)OC3)[nH]1 [Compound 32, dimethyl ((2S,2′S,3R,3′R)-((2S,2′S)-((5,10-dihydrochromeno[5,4,3-cde]chromene-2,7-diyl)bis(4-chloro-1H-imidazole-5,2-diyl))bis(pyrrolidine-2,1-diyl))bis(3-methyl-1-oxopentane-1,2-diyl))dicarbamate]	1.1

Source: patent publication US12497408B2, “Tetracyclic compounds and methods for the treatment of Zika virus infection” (priority 2021, dated 2025)
